Measured values taken from ChEMBL document CHEMBL1201862, “PubChem BioAssay data set” (2004).
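96-well plates; 48 h exposure; 5 concentrations. Endpoints by linear interpolation between flanking doses. Not reached: highest tested concentration assigned. Here, GI50 denotes the concentration required for 50% inhibition of growth.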 Calls of active or inactive are those of the source. Rule as the data show it: active = GI50 up to about 1.1 µM and inactive = higher.

Tests used:
Experiment in all cases: NCI anticancer screen, dose series, 48 h
[1] = tested on: LXFL 529
[2] = tested on: KM-20L2
[3] = tested on: T47D
[4] = tested on: MDA-N
[5] = tested on: BT-549
[6] = tested on: Hs-578T
[7] = tested on: DLD-1
[8] = tested on: MCF7
[9] = tested on: RXF 631

For `CN1CCN(CCCN2c3ccccc3Sc3ccc(C(F)(F)F)cc32)CC1`, the GI50 [1] was 10.2 µM (inactive), the GI50 [2] was 2.27 µM (inactive) and the GI50 [3] was 10 µM (inactive). For the same compound, the GI50 [4] was 3.6 µM (inactive), the GI50 [5] was 14.5 µM (inactive) and the GI50 [6] was 4.35 µM (inactive). The GI50 [7] was 13.8 µM (inactive).
In the case of `CC1C(=O)C(C)C(c2ccccc2)N(N=O)C1c1ccccc1` (configuration not stated), the GI50 [1] is reported as > 1000 µM (inactive), the GI50 [2] is reported as > 1000 µM (inactive) and the GI50 [3] is reported as 60.8 µM (inactive). For the same compound, the GI50 [4] was 134 µM (inactive), the GI50 [5] was > 100 µM (inactive) and the GI50 [6] was 46.7 µM (inactive). The GI50 [7] was > 100 µM (inactive) and the GI50 [8] was > 100 µM (inactive).
With `Nc1ccc(C(=O)N/C(=C\c2ccc3c(c2)OCO3)c2nc3ccc4c(c3[nH]2)C(=O)c2ccccc2C4=O)cc1` the GI50 [1] was 30.5 µM (inactive), the GI50 [2] was 59.6 µM (inactive) and the GI50 [9] was 37.3 µM (inactive). For the same compound, the GI50 [7] was 9.82 µM (inactive).
With `Cc1ccc(C)c(NC(=O)C(=O)CC(=O)c2cccc3ccccc23)c1` the GI50 [1] was > 100 µM (inactive), the GI50 [2] was > 100 µM (inactive) and the GI50 [9] was > 100 µM (inactive). For the same compound, the GI50 [7] was > 100 µM (inactive).
`CC(NC(=O)C(=O)N/N=C1\C[C@@H](c2ccccc2)Nc2ccccc21)c1ccccc1` (some centres not stated) was tested, and the GI50 [1] was 77.4 µM (inactive), the GI50 [2] was > 100 µM (inactive) and the GI50 [7] was > 100 µM (inactive).
`CNS(=O)(=O)NNS(=O)(=O)c1ccc(F)cc1` was tested, and the GI50 [1] was > 100 µM (inactive), the GI50 [2] was > 100 µM (inactive) and the GI50 [9] was > 100 µM (inactive). For the same compound, the GI50 [7] was > 100 µM (inactive).
For `CC(C)(C)c1cc(O)c2c(c1O)C(=O)CCC2`, the GI50 [1] was 34.8 µM (inactive), the GI50 [2] was 40.1 µM (inactive) and the GI50 [9] was 57.7 µM (inactive). The GI50 [7] was 37.9 µM (inactive).
In the case of `Nc1nc(N)c(-c2ccccc2)c(C(=O)Nc2nccs2)n1`, the GI50 [1] is reported as > 100 µM (inactive), the GI50 [2] is reported as > 100 µM (inactive) and the GI50 [9] is reported as > 100 µM (inactive). For the same compound, the GI50 [7] was > 100 µM (inactive).
With `O=C(NN1C(=O)CS(=O)(=O)C1c1cccc(F)c1)c1ccncc1` (configuration not stated) the GI50 [1] was > 100 µM (inactive), the GI50 [9] was > 100 µM (inactive) and the GI50 [7] was > 100 µM (inactive).
`Cc1ccc(Nc2nc(C)c(C(/C=C/c3ccc4c(c3)OCO4)=N/Nc3ccc([N+](=O)[O-])cc3[N+](=O)[O-])s2)c([N+](=O)[O-])c1` was tested, and the GI50 [1] was 6.03 µM (inactive), the GI50 [2] was 33.9 µM (inactive) and the GI50 [9] was 42.5 µM (inactive). For the same compound, the GI50 [7] was 27.6 µM (inactive).
For `COc1cc(C(C)c2cc3c(cc2OCCNC(=O)COc2cc4c(cc2C(C)c2cc(OC)c(OC)c(OC)c2)OCO4)OCO3)cc(OC)c1OC` (configuration not stated), the GI50 [1] was 44.2 µM (inactive), the GI50 [2] was > 100 µM (inactive) and the GI50 [9] was 86.3 µM (inactive). For the same compound, the GI50 [7] was > 100 µM (inactive).
In the case of `CCc1cccc(CC)c1NC(=S)NC(=O)c1ccc(Br)cc1`, the GI50 [1] is reported as 43.1 µM (inactive), the GI50 [2] is reported as 47.5 µM (inactive) and the GI50 [3] is reported as 21.9 µM (inactive). For the same compound, the GI50 [4] was 30.4 µM (inactive), the GI50 [6] was 3.76 µM (inactive) and the GI50 [9] was > 100 µM (inactive). For the same compound, the GI50 [7] was 34.9 µM (inactive) and the GI50 [8] was 20.6 µM (inactive).
With `COc1cc2c(cc1O)C(C)Cc1cc3c(cc1N(C)CC2)OCO3` (configuration not stated) the GI50 [1] was 5.41 µM (inactive), the GI50 [2] was 12.4 µM (inactive) and the GI50 [9] was 18.7 µM (inactive). The GI50 [7] was 4.16 µM (inactive).
`CCC(=O)OC[n+]1ccc2c(C)c3[nH]c4ccc(OC)cc4c3c(C)c2c1` was tested, and the GI50 [1] was 0.0582 µM (active), the GI50 [2] was 0.117 µM (active) and the GI50 [9] was 0.0843 µM (active). For the same compound, the GI50 [7] was 0.0435 µM (active).
With `COc1ccc(C(=O)OC2C=COC(C)C2OC(=O)c2ccc(OC)cc2)cc1` (configuration not stated) the GI50 [1] was 14.5 µM (inactive), the GI50 [2] was 27.6 µM (inactive) and the GI50 [9] was 26.4 µM (inactive). For the same compound, the GI50 [7] was 16.4 µM (inactive).
In the case of `COc1ccc(/C=C/C(=O)C(C)(C)CN2CCCCC2)cc1`, the GI50 [1] is reported as 15.5 µM (inactive), the GI50 [2] is reported as 20.2 µM (inactive) and the GI50 [7] is reported as 18 µM (inactive).
With `[O-]/[N+](=C\c1ccccc1)[C@H](COCc1ccccc1)c1ccccc1` the GI50 [1] was > 100 µM (inactive), the GI50 [2] was > 100 µM (inactive) and the GI50 [9] was > 100 µM (inactive). The GI50 [7] was > 100 µM (inactive).
With `CC(=O)N(C)c1ccc2c(ccc[n+]2[O-])c1[N+](=O)[O-]` the GI50 [1] was > 100 µM (inactive), the GI50 [2] was > 100 µM (inactive) and the GI50 [9] was > 100 µM (inactive). The GI50 [7] was > 100 µM (inactive).
In the case of `CN(C)CCNC(=O)c1cccc2nc3c(Cl)cccc3nc12`, the GI50 [1] is reported as 9.84 µM (inactive), the GI50 [2] is reported as 5.52 µM (inactive) and the GI50 [9] is reported as 6.92 µM (inactive). The GI50 [7] was 4.43 µM (inactive).
For `Cc1ccc(C(=O)Nc2ccccc2)cc1/N=N/N(C)C`, the GI50 [1] was > 100 µM (inactive), the GI50 [2] was > 10 µM (inactive) and the GI50 [7] was > 100 µM (inactive).
In the case of `O=C(/C=C\c1cccc2ccccc12)c1ccc(Cl)cc1Cl`, the GI50 [1] is reported as 18.3 µM (inactive), the GI50 [2] is reported as 31 µM (inactive) and the GI50 [9] is reported as 23.8 µM (inactive). The GI50 [7] was 22 µM (inactive).
For `N#CC(C#N)=C(N)/C(C#N)=C/c1ccc(O)c(O)c1`, the GI50 [1] was 40.7 µM (inactive), the GI50 [2] was 25.1 µM (inactive) and the GI50 [3] was 53.7 µM (inactive). The GI50 [4] was > 100 µM (inactive), the GI50 [5] was > 100 µM (inactive) and the GI50 [6] was 48.4 µM (inactive). For the same compound, the GI50 [7] was 71.3 µM (inactive) and the GI50 [8] was 75.2 µM (inactive).
`Cn1nnc2c(C(N)=O)ncn2c1=O` [TEMOZOLOMIDE] was tested, and the GI50 [1] was > 100 µM (inactive), the GI50 [2] was > 100 µM (inactive) and the GI50 [3] was > 100 µM (inactive). The GI50 [4] was > 100 µM (inactive), the GI50 [5] was > 100 µM (inactive) and the GI50 [6] was > 100 µM (inactive). For the same compound, the GI50 [7] was > 100 µM (inactive) and the GI50 [8] was > 100 µM (inactive).
